Laboratory results: patent US9499614B2, “Methods for modulating protein glycosylation profiles of recombinant protein therapeutics using monosaccharides and oligosaccharides” (AbbVie, Inc., priority 2013, dated 2016)

Legend:
Format in all cases: cell-based, Chinese Hamster
Cell Line 2 [1] = assay: Shake flask semi-fedbatch culture of Cell Line 2, cell culture performance (Example 1); conditions: 7 mM
Description: (§1) Two recombinant Chinese Hamster Ovary (CHO) cell lines expressing two different humanized monoclonal antibodies (Antibody 1, Antibody 2) were evaluated in two different culture vessels (shaker flasks and laboratory scale bioreactors). Both cell lines were of CHO DUX-B11 origin based on a dhfr (dihydrofolate reductase) expression system. Both cell lines were cultured in the same chemically defined basal media (CDBM), with Cell Line 1 also utilizing a chemically-defined feed media (CDFM). Each of the respective media were supplemented with selected monosaccharides and oligosaccharides to evaluate their potential impact on the resulting N-glycan oligosaccharide profile. In preparing the cultures, the cell lines were serially expanded through separate seed train inoculums to generate enough cells for inoculation.
Viable cell density (VCD) and cell viability values were measured through trypan blue exclusion via Cedex automated cell counters (Roche Applied Science, Indianapolis, Ind.), glucose and lactate values were measured with a ABL-805 (Radiometer Medical, Denmark) blood gas analyzer. Offline pH, dissolved oxygen (DO), and pCO2 measurements were performed with a ABL-805 (Radiometer Medical, Denmark) blood gas analyzer. Osmolality was measured on a Multi-Osmette 2430 osmometer (Precision Systems, Natick, Mass.).
Antibody titers were measured from crude cell culture harvests on a Poros A™ (Life Technologies, Carlsbad, Calif.) affinity column using an Agilent (Santa Clara, Calif.) 1200 Series HPLC, or equivalent, operating with a low pH, step elution gradient with detection at 280 nm. Absolute concentrations were assigned with respect to reference standard calibration curves.
Cell Line 2 was evaluated in shake flask culture in semi-fedbatch mode. Sucrose was supplemented into the basal media at various concentrations to evaluate the resulting impact on cell culture performance, as well as the protein glycosylation profile. […] There was however, a very significant impact on the protein glycosylation profiles of harvest samples across all sucrose concentrations evaluated (FIG. 12). […]

Cell Line 2 [2] = assay: N-glycan oligosaccharide profiling, Cell Line 2 shake flasks (Example 1); conditions: 30 mM supplement vs control
Description: as §1
Purified antibodies subjected to additional analytical characterization were purified using MabSelect™ Protein A (GE Healthcare, Piscataway, N.J.) using a low pH, step elution gradient, followed by buffer exchange using Corning Lifesciences (Tewksbury, Mass.) Spin Concentrator X UF columns according to the manufacturers' recommended procedures.
Approximately 200 μg of Protein A purified samples from Cell Lines 1 and 2 were treated with N-glycanase at 37° C. overnight to remove the N-glycans from the protein. The protein was precipitated and the supernatant was taken for subsequent chemical derivatization of the reducing end of the released glycans with 2-aminobenzamide (2-AB) dye. Following the derivatization step, the excess label was removed using clean up cartridges and the samples were analyzed using normal phase HPLC with fluorescent detection. Mobile phase A was 100% acetonitrile and mobile phase B was 50 mM ammonium formate pH 4.4. The glycans were eluted from a polyamide column (Prozyme, Hayward, Calif.) using a shallow gradient. The labeled glycans were detected using a fluorescence detector with an excitation wavelength of 330 nm and an emission wavelength of 420 nm.
Cell Line 2 was evaluated in shake flask culture in semi-fedbatch mode. Sucrose was supplemented into the basal media at various concentrations to evaluate the resulting impact on cell culture performance, as well as the protein glycosylation profile. On average, 7 mM, 15 mM, and 30 mM sucrose all nominally impacted overall cell growth, with only slight drops in peak viable cell density (1×10^6-2×10^6 cells/mL) as compared to the unsupplemented control. […] There was however, a very significant impact on the protein glycosylation profiles of harvest samples across all sucrose concentrations evaluated (FIG. 12). A concentration-dependent modulation of protein glycosylation was observed that was consistent with the results obtained for Cell Line 1.

Cell Line 1 = assay: Shake flask fedbatch culture of Cell Line 1 (Antibody 1), cell culture performance (Example 2); conditions: for Antibody 1 harvest titer: 1, 10, 30, 50, 70 mM vs control
Description: Two recombinant Chinese Hamster Ovary (CHO) cell lines expressing two different recombinant glycoproteins were evaluated in two different cultures vessels (shaker flasks and 3 L laboratory scale bioreactors). Cell Line 1 expressed Antibody 1, Cell Line 2 expressed Dual Variable Domain Immunoglobulin 1 (DVD 1) and Cell Line 3 expressed Antibody 2. Antibodies 1 and 2 are IgG1 proteins, and DVD 1 is an immunoglobulin with two variable domains as documented previously (Wu C. et al., (2007) Nat. Biotechnol 25(11):1290-1297). All cell lines were of CHO DUX-B11 origin based on a dhfr (dihydrofolate reductase) expression system. All cell lines were cultured in the same chemically defined basal media. Cell lines 1 and 2 were fed with the same chemically-defined feed media, but Cell Line 1 was fed media that was formulated at a 50% higher concentration. Each of the respective media were supplemented with either sucrose or tagatose to evaluate their potential impact on the resulting N-glycan oligosaccharide profile. All sugars were purchased from Sigma-Aldrich (St. Louis, Mo.). In preparation of the cultures, the cell lines were serially expanded through separate seed train inoculums to generate enough cells for inoculation. […] [table] Viable cell density (VCD) and cell viability values were measured through trypan blue exclusion via Cedex automated cell counters (Roche Applied Science, Indianapolis, Ind.), glucose and lactate values were measured with a ABL-805 (Radiometer Medical, Denmark) blood gas analyzer. Offline pH, dissolved oxygen (DO), and pCO2 measurements were performed with an ABL-805 (Radiometer Medical, Denmark) blood gas analyzer. Osmolality was measured on a Multi-Osmette 2430 osmometer (Precision Systems, Natick, Mass.). Antibody titers were measured from crude cell culture harvests on a Poros A™ (Life Technologies, Carlsbad, Calif.) affinity column using an Agilent (Santa Clara, Calif.) 1200 Series HPLC, or equivalent, operating with a low pH, step elution gradient with detection at 280 nm. Absolute concentrations were assigned with respect to reference standard calibration curves. Experimental results are expressed as mean±SD for those results generated from at least three independent cultures. Experimental results are expressed as the measured value for those results generated from less than three independent cultures. Results were evaluated for statistical significance through 2-sided t-tests, with a requirement of p<0.05 relative to the unsupplemented control conditions. Cell Line 1 was cultured in shake flasks in fedbatch mode after an abbreviated seed train. Sucrose and tagatose were supplemented into chemically-defined basal and feed media at concentrations of 1, 10, 30, 50, and 70 mM, and compared to unsupplemented control conditions. The viable cell density (VCD), viability, and harvest titer results are shown in FIGS. 13A-13C for the sucrose supplemented cultures and FIGS. 14A-14C for the tagatose supplemented cultures.

SMILES	cell viability (Cell Line 2 [1]; 15 mM and 30 mM)	harvest titer (Cell Line 2 [1]; 15 mM and 30 mM)	drop in peak viable cell density (Cell Line 2 [1]; 15 mM and 30 mM vs control)	cumulative increase in overall mannosylated N-glycans (Cell Line 2 [2])	drop in NGA2F species (Cell Line 2 [2])	drop in overall fucosylation (Cell Line 2 [2])	increase in Man 5 species (Cell Line 2 [2])	increase in Man 6 species (Cell Line 2 [2])	increase in Man 7 species (Cell Line 2 [2])	peak VCD (Cell Line 1; 50 mM and 70 mM)	increase in harvest titer (Cell Line 1; 50 mM vs control)	Antibody 1 harvest titer (Cell Line 1)	viable cell density over time (Cell Line 1; 1, 10 and 30 mM)	cell viability after process day 10 (Cell Line 1; 10, 30, 50 and 70 mM)	viable cell density over time (Cell Line 1; 1 mM and 10 mM)	decrease in harvest titer (Cell Line 1; 70 mM vs control)	cell viability after process day 10 (Cell Line 1; 30, 50 and 70 mM)	peak VCD (Cell Line 1; 30, 50 and 70 mM)
OC[C@H]1O[C@@](CO)(O[C@H]2O[C@H](CO)[C@@H](O)[C@H](O)[C@H]2O)[C@@H](O)[C@@H]1O [sucrose]	not significantly different from each other	not significantly different from each other	1×10^6-2×10^6 cells/mL	19%	27%	19%	≤ 17%	1%	1%	reduction in peak VCD	2%	essentially indistinguishable from the control conditions	remained essentially the same	died slower than the control				
O=C(CO)[C@@H](O)[C@@H](O)[C@H](O)CO [tagatose]												essentially indistinguishable			remained similar or higher	9%	died slower than the control	reduction in peak VCD
